Assay [1] deals with NCI-H187 (small-cell lung cancer) cells. Nature of the assay: Cytotoxicity against NCI-H187 cells, resazurin fluorescent method. The format is cell-based. Conditions: Homo sapiens.
Assay [2] concerns MCF-7 (breast cancer) cells. Nature of the assay: Cytotoxicity against MCF-7 cells, resazurin fluorescent method. To be noted: Homo sapiens, MCF7. The format is cell-based.
The next assay has as its system Vero cells. Nature of the assay: Cytotoxicity to Vero cells, green fluorescent protein detection method. In kind it is cell-based, African green monkey. To be noted: Chlorocebus sabaeus; nonmalignant Vero cells.
The subject of assay [3] is Mycobacterium tuberculosis H37Ra. Nature of the assay: Antimycobacterial activity, green fluorescent protein detection method. In kind it is cell-based. Conditions: M. tuberculosis H37Ra, standard drugs.
Another assay has as its system Plasmodium falciparum K1. Nature of the assay: Antiplasmodial assay, microculture radioisotope technique. The format is cell-based. Conditions: P. falciparum K1, standard drug.

Converted amounts (≈) assume the structure as drawn.

As usually defined, the IC50 is the concentration that gives 50% inhibition. A higher IC50 goes with a need for much substance. In the case of `CC(C)=CCC/C(=C/Cc1cc(O)ccc1OC(C)(C)[C@@H](O)CC[C@@H](C)[C@H]1CC[C@@]2(C)C3=CC[C@H]4C(C)(C)[C@@H](O)CC[C@]4(C)C3=CC[C@]12C)C(=O)O` [ganohochimin F (6), Ganohochimin F], the IC50 in assay [1] is 7.7 µM; in assay [2], above 70 µM; with Vero cells, 6.3 µM.
For `CC(C)=CCC/C(=C/Cc1cc(OC(C)(C)[C@@H](O)CC[C@@H](C)[C@H]2CC[C@@]3(C)C4=CC[C@H]5C(C)(C)[C@@H](O)CC[C@]5(C)C4=CC[C@]23C)ccc1O)C(=O)O` [ganohochimin H (8), Ganohochimin H], the IC50 in assay [1] was 18 µM; in assay [2], above 70 µM; in the assay on Vero cells it was 24 µM.
For orientation: MIC means the lowest concentration found to suppress growth. A low value points to inhibition by little substance. Regarding `CO[C@H]1/C=C/O[C@@]2(C)Oc3c(C)c(O)c4c(O)c(c(/C=N/N5CCN(C)CC5)c(O)c4c3C2=O)NC(=O)/C(C)=C\C=C\[C@H](C)[C@H](O)[C@@H](C)[C@@H](O)[C@@H](C)[C@H](OC(C)=O)[C@@H]1C` [Rifampicin], the minimal inhibitory concentration (MIC) in assay [3] was 0.025 µg/mL (≈ 0.0304 µM).
With `Cc1c2ccncc2c(C)c2c1[nH]c1ccccc12` [ellipticine, reference compound], the IC50 in assay [1] is 7.6 µM; in the assay on Vero cells, 6 µM.
On to `COc1cccc2c1C(=O)c1c(O)c3c(c(O)c1C2=O)C[C@@](O)(C(=O)CO)C[C@@H]3O[C@H]1C[C@H](N)[C@H](O)[C@H](C)O1` [doxorubicin, reference compound], for which the 50% inhibitory concentration (IC50) in assay [1] worked out at 0.15 µM; in assay [2], 11 µM.
`C[C@H]1[C@@H](O)O[C@@H]2O[C@@]3(C)CC[C@H]4[C@H](C)CC[C@@H]1[C@@]24OO3` [Dihydroartemisinin] registered an IC50 with Plasmodium falciparum K1 of 0.0014 µM.
Turning to `CC(C)=CCC/C(C)=C/CC/C(=C/Cc1cc(O)ccc1OC(C)(C)[C@@H](O)CC[C@@H](C)[C@H]1CC[C@@]2(C)C3=CC[C@H]4C(C)(C)[C@@H](O)CC[C@]4(C)C3=CC[C@]12C)C(=O)O` [ganohochimin B (2), Ganohochimin B], the values for the concentration for half-maximal inhibition (IC50) (in assay [1]; in assay [2]; in the assay on Vero cells) were 33 µM, above 64 µM and 28 µM, respectively.
For `CC(C)=CCC/C(=C/Cc1cc(O)ccc1OC(C)(C)[C@@H](O)CC[C@@H](C)[C@H]1CC[C@@]2(C)C3=CC[C@H]4C(C)(C)C(=O)CC[C@]4(C)C3=CC[C@]12C)C(=O)O` [ganohochimin E (5), Ganohochimin E] the same measures were 21 µM, above 70 µM and 13 µM.
For `CCC(=O)CC[C@@]1(C)OC[C@]23[C@@H](O)C(=O)C4=C(C(=O)C[C@@H]([C@@]5(C)CO5)[C@]4(C)CCC(=O)O[C@@H](CC[C@@H](C)[C@H]4CC[C@@]5(C)C6=CC[C@H]7C(C)(C)C(=O)CC[C@]7(C)C6=CC[C@]45C)C(C)(C)O)[C@]2(C)CC[C@@H]31` [ganohochimate A (9), Ganohochimate A] the same measures were above 52 µM, above 52 µM and 52 µM.
With `CC(C)=CCCC(C)=CCCC(=CCc1cc(O)ccc1OC(C)(C)C(O)CCC(C)C1CCC2(C)C3=CCC4C(C)(C)C(=O)CCC4(C)C3=CCC12C)C(=O)O` (centres unmarked) [ganohochimin A (1), Ganohochimin A], the IC50 is 19 µM in assay [1], above 64 µM in assay [2] and 17 µM in the assay on Vero cells.
As for `CC(C)=CCC/C(=C/Cc1cc(O)ccc1O)C(=O)O` [fornicin F (10), Fornicin F], the values for the IC50 (in assay [1]; in assay [2]; with Vero cells) were 134 µM, above 181 µM and above 181 µM, respectively.
As to `CC(C)=CCC/C(C)=C/CC/C(=C/Cc1cc(OC(C)(C)[C@@H](O)CC[C@@H](C)[C@H]2CC[C@@]3(C)C4=CC[C@H]5C(C)(C)C(=O)CC[C@]5(C)C4=CC[C@]23C)ccc1O)C(=O)O` [ganohochimin C (3), Ganohochimin C], the IC50 is 21 µM in assay [1], above 64 µM in assay [2] and 30 µM with Vero cells.
Consider `CC(C)=CCC/C(=C/Cc1cc(OC(C)(C)[C@@H](O)CC[C@@H](C)[C@H]2CC[C@@]3(C)C4=CC[C@H]5C(C)(C)C(=O)CC[C@]5(C)C4=CC[C@]23C)ccc1O)C(=O)O` [ganohochimin G (7), Ganohochimin G], for which the results for the IC50 (in assay [1]; in assay [2]; with Vero cells) were 21 µM, above 70 µM and 14 µM, respectively.
The molecule `NNC(=O)c1ccncc1` [isoniazid] had an MIC in assay [3] of 0.375 µg/mL (≈ 2.73 µM).
Molecule `CCN(CC)CCCC(C)Nc1ccnc2cc(Cl)ccc12` (centres unmarked) [chloroquine] came in with an IC50 in the assay on Plasmodium falciparum K1 of 0.58 µM.
For `CC(C)=CCC/C(C)=C/CC/C(=C/Cc1cc(OC(C)(C)[C@@H](O)CC[C@@H](C)[C@H]2CC[C@@]3(C)C4=CC[C@H]5C(C)(C)[C@@H](O)CC[C@]5(C)C4=CC[C@]23C)ccc1O)C(=O)O` [ganohochimin D (4), Ganohochimin D], the half-maximal inhibitory concentration (IC50) in assay [1] was 16 µM; in assay [2] it was above 64 µM; in the assay with Vero cells it was 28 µM.

These data come from paper PMC12547551, “Lanostane–Meroterpene Conjugates with Unusual Aryl Ether Linkage and a Lanostane Dimer from Artificially Cultivated Fruiting Bodies of Ganoderma cf. hochiminhense” (ACS Omega, 2025).
